This note sets out measurements from PubChem BioAssay AID504726 (Broad Institute, 2011).

Values joined by “and” are separate entries in the source; they are usually repeats but may differ in a detail not shown here. Equal entries are not always repeated. Active and inactive are the calls of the source.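 How the source made its calls: active means fitted half-maximal concentration for a cytotoxic signal drop no higher than ten times the top valid dose tested; inconclusive means flat curve between -70 and -30 percent, or an unreliable fit; inactive means flat within 30 percent, signal rise, or potency beyond limit.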

Tested on in the first assay: not listed separately
Description: HeLa cell cytotoxicity, dose response, cytotoxicity control, 24 h, cherry-picked samples (AID 504726).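 On activity change, negative = cytotoxicity: 0% = DMSO neutral controls and -100% = mitoxantrone positive controls.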 Particulars: HeLa viability, CellTiter-Glo ATP luminescence, 24 h; at 35 µM (top of the series). Background: Cellular ATP, detected with luciferase, serves as a proxy for viable cell number.
With `Cc1nn(Cc2c(F)c(F)c(F)c(F)c2F)c(C)c1NC(=O)c1ccnn1C`, the activity change, negative = cytotoxicity is -4.82% (inactive).

In the case of `COc1ccc(NC(=O)NS(=O)(=O)c2ccc(C)cc2)cn1`, the activity change, negative = cytotoxicity was -5.07% (inactive).

Regarding `Nc1cccc2cc(S(=O)(=O)O)ccc12`, the activity change, negative = cytotoxicity was 5.33% (inactive).

As for `O=C(OCC(=O)N1N=C(c2ccc(Cl)cc2)CC1c1ccco1)c1cccnc1` (configuration not stated), the activity change, negative = cytotoxicity was -11.7% (inactive).

For `CCOC(=O)c1sc(NC(=O)CSC(=S)N2CCN(C)CC2)nc1C`, the activity change, negative = cytotoxicity was -7.44% (inactive).

`CCc1ccc(C2CC(c3cccc(Cl)c3)n3nc(N)nc3N2)cc1` (configuration not stated): the activity change, negative = cytotoxicity was -1.95% (inactive).

`O=C(CCN1C(=O)/C(=C\c2ccco2)SC1=S)Nc1ccc(C(=O)O)c(O)c1`: the activity change, negative = cytotoxicity is 4.66% (inactive).

`COc1ccc(C2C(C(=O)c3cccs3)=C(O)C(=O)N2c2nncs2)cc1` (configuration not stated): the activity change, negative = cytotoxicity is -14.2% (inactive).

Regarding `Cc1ccc(C(CC(=O)N2CCCCC2)c2ccccc2)c(O)c1C` (configuration not stated), the activity change, negative = cytotoxicity is -3.99% (inactive).

For `O=C(O)CCCN1C(=O)/C(=C/C=C/c2ccco2)SC1=S`, the activity change, negative = cytotoxicity was -9.04% (inactive).

Consider `O=C(O)C(c1ccccc1)N1C(=O)/C(=C\c2ccc(-c3cccc(Cl)c3)o2)SC1=S` (configuration not stated), for which the activity change, negative = cytotoxicity was -2.5% (inactive).

The test system of a further assay is HeLa viability, CellTiter-Glo ATP luminescence, 24 h. The assay is described as above.
Settings: not given
Turning to `O=C1c2c(O)ccc(O)c2C(=O)c2c(NCCNCCO)ccc(NCCNCCO)c21`, the AC50 – broadly, the concentration giving half of the maximal activity seen – was 1360 nM and 4080 nM.
